Laboratory results reported in PMC12841663, “Antiprotozoal Potential of Cultivated Geranium macrorrhizum Against Giardia duodenalis, Trichomonas gallinae and Leishmania infantum” (International Journal of Molecular Sciences, 2026).
In brackets after ≈: the same amount, converted by molar mass.

Key:
T. gallinae trophozoites = experiment: Anti-Trichomonas activity assay (MTT viability); format: cell-based; conditions: pure compounds
Experimental: The anti-Trichomonas (AT) activity assay utilized T. gallinae trophozoites from an isolate obtained from a wood pigeon by Dr. […] EOs and pure compounds were solved in DMSO (Sigma, Madrid, Spain) (<1% final concentration). […] Trophozoites/promastigotes viability was assessed using the modified MTT colorimetric assay, as described previously in the literature, with results further validated by microscopic examination. The plate was analyzed in a spectrophotometer at a wavelength of 570 nm. The percentage of antiparasitic activity was calculated as growth inhibition, using the following formula: % AT = 100 - [(Ap - Ab) ÷ (Ac - Ab)] × 100, where Ap is the absorbance of the tested product, Ab the absorbance of the blank and Ac the absorbance of the control wells (culture without treatment). […] Metronidazole (Acros Organics, Madrid, Spain) served as a reference compound for anti-Giardia activity and Anti-Trichomonas activity and amphotericin B for anti-Leishmania activity. Data was analyzed using STATGRAPHICS Centurion XIX ([…].com) (Statgraphics Technologies, Inc., The Plains, VA, USA). The mammalian cells and trophozoites viability were tested with each compound in a dose-response experiment to calculate their relative potency (CC50 or IC50 value, respectively).

[1] = test system: intracellular amastigotes of L. infantum; experiment: Infection index of DH82 macrophages infected with L. infantum (intracellular amastigotes); format: cell-based, Leishmania infantum; conditions: for nº Amastigotes/Infected Cell / % Infected Cells / Infection Index: DH82 macrophages, 48 h
Experimental: (§1) Anti-Leishmania (AL) activity was assessed on L. infantum promastigotes (MCAN/ES/98/LLM-722), kindly provided by Dr. J.M. Requena from CBM-CSIC, as well as on L. infantum (M/CAN/ES/96/BCN150 zymodeme MON-1), strain isolated from a dog with active visceral leishmaniasis. L. infantum promastigotes (MCAN/ES/98/LLM-722) were cultured in RPMI medium supplemented with 15% FBS and 10 μg/mL of hemin (Acros Organics, Madrid, Spain), grown at 26 °C. Promastigotes in logarithmic growth were seeded in 96-well flat-bottom plates at a volume of 100 μL of culture per well and incubated for 48 h. Promastigotes for macrophage infection (M/CAN/ES/96/BCN150 zymodeme MON-1) were maintained at 26 °C in Schneider’s insect medium (Lonza, Basel, Switzerland) supplemented with 10% FBS and 100 U/mL penicillin and 100 μg/mL streptomycin (Lonza, Basel, Switzerland) (Pen-Strep). Promastigotes in the stationary phase of growth (5–6 days) were washed twice in phosphate-buffered saline at 2700× g for 10 min at 22 °C and employed for macrophage infection.
(§2) Canine DH82 (ATCC®-CRL-10389TM) macrophages were maintained in Dulbecco’s modified Eagle’s medium (DMEM) (Thermo Fisher Scientific, Waltham, MA, USA) supplemented with 10% heat-inactivated FBS (Thermo Fisher Scientific, Waltham, MA, USA), and Pen-Strep at 37 °C in 5% CO2.
DH82 cells (5 × 10^4 per well) were seeded in LabTek culture chamber slides (Thermo Scientific, Nunc™, Roskilde, Denmark) and incubated overnight at 37 °C and 5% CO2. On the following day, macrophages were infected with L. infantum stationary phase-promastigotes at a ratio of 5:1 parasites/macrophage and after 4 h of incubation at 37 °C, a time point that reflects initial infection, extracellular promastigotes were removed by washing. Germacrone was added at varying concentrations (10, 50 and 100 μg/mL) and macrophages were incubated in fresh medium for 48 h at 37 °C and 5% CO2. After Giemsa staining, cells were mounted with Vitro-Clud (Deltalab SLU, Barcelona, Spain), and 400 macrophages were counted in duplicate in a microscope Olympus BX41 (Olympus Corporation, Tokyo, Japan). The percentage of infected macrophages and the mean of the number of amastigotes per infected macrophage (defined as the intensity of infection) were evaluated. The infection index was calculated by multiplication of both parameters to account for the overall parasite load.

[2] = test system: L. infantum promastigotes; experiment: Anti-Leishmania activity assay on promastigotes (MTT viability); format: cell-based; conditions: pure compounds
Experimental: as §1
EOs and pure compounds were solved in DMSO (Sigma, Madrid, Spain) (<1% final concentration). […] Trophozoites/promastigotes viability was assessed using the modified MTT colorimetric assay, as described previously in the literature, with results further validated by microscopic examination. The plate was analyzed in a spectrophotometer at a wavelength of 570 nm. The percentage of antiparasitic activity was calculated as growth inhibition, using the following formula: % AT = 100 − [(Ap − Ab) ÷ (Ac − Ab)] × 100, where Ap is the absorbance of the tested product, Ab the absorbance of the blank and Ac the absorbance of the control wells (culture without treatment).
Pure compounds were tested using the same method, although at concentrations of 100, 75, 50, 25, 10, and 1 μg/mL. Metronidazole (Acros Organics, Madrid, Spain) served as a reference compound for anti-Giardia activity and Anti-Trichomonas activity and amphotericin B for anti-Leishmania activity.
Data was analyzed using STATGRAPHICS Centurion XIX (https://www.statgraphics.com) (Statgraphics Technologies, Inc., The Plains, VA, USA). The mammalian cells and trophozoites viability were tested with each compound in a dose–response experiment to calculate their relative potency (CC50 or IC50 value, respectively). IC50 (μg/mL) expresses the dose of EOs, extracts or pure compounds needed to produce 50% mortality of trophozoites, while CC50 (μg/mL) expresses the dose of compounds necessary to produce 50% mortality of Vero cells.

DH82 canine macrophages = experiment: Cytotoxicity of germacrone on DH82 macrophages (MTT); format: cell-based; conditions: at concentrations of 50 and 100 μg/mL
Experimental: as §2
(§3) DH82 canine macrophages (5 × 10^4 per well) were seeded in 96-well plates in DMEM and kept overnight at 37 °C and 5% CO2. After washing with PBS, germacrone was added in varying concentrations (10, 50 and 100 μg/mL). After 48 h of treatment, cell viability was determined by the MTT method using a spectrophotometer (Multiskan EX, Thermo Electron Corporation, Vantaa, Finland) at 570 nm. The results were expressed as the cytotoxic concentration of 50% of the cell population (CC50). Amphotericin B (Gibco, Thermo Fisher Scientific, Grand Island, NY, USA) at 1 μg/mL was used as the reference drug. The assays were performed in two independent experiments, each in quadruplicate.

[3] = as above; format: cell-based, canine; conditions: dog, DH82 macrophages; 48 h treatment; MTT; R^2 98.4
Experimental: as §2, §3

## CC(C)=C1C/C=C(\C)CC/C=C(\C)CC1=O [Compound 2, germacrone]
T. gallinae trophozoites
  IC50: 45.8 µg/mL (≈ 210 µM)
[1]; 10 µg/mL
  nº Amastigotes/Infected Cell: 2.4 ± 1.1
[1]; 10 µg/mL, control of infection 42.8, listed as Germacrone (2)
  % Infected Cells: 25.9 ± 8.3 %
[1]; 10 µg/mL, control of infection 42.8, listed as germacrone (2)
  % Infected Cells: 25.9%
[1]; 10 µg/mL, control of infection 152.1, listed as Germacrone (2)
  Infection Index: 61.0 ± 9.4
[1]; 10 µg/mL, control of infection 152.1, listed as germacrone (2)
  Infection Index: 61.0
[1]; 10 µg/mL, from 152.1 (control) to 61.0
  reduction of the infection index: more than 50%
[1]; 50 µg/mL
  % Infected Cells: dead cells
  Infection Index: dead cells
  nº Amastigotes/Infected Cell: dead cells
[1]; 100 µg/mL
  % Infected Cells: dead cells
  Infection Index: dead cells
  nº Amastigotes/Infected Cell: dead cells
[2]
  IC50: 37.5 µg/mL (≈ 172 µM)
DH82 canine macrophages
  effect on canine macrophages: lethal
[3]
  CC50 at 48 h: 12.9 µg/mL (≈ 59.1 µM)
